Molecular target: T1, EBP (Homo sapiens, UniProt Q15125)
T1 construct: HEK293T cells were utilized as the source of EBP enzyme; endogenous in cells; host or cells: HEK293T
Assay: EBP Functional Assay (EBP immunoaffinity LC-MS assay)
Assay type: biochemical
Conditions: EBP enzyme from HEK293T cells; 30 min with inhibitor, then zymosterol-d5, 37° C., 4 h; percent conversion to dehydrolathosterol-d5 by LC-APCI MRM MS
Procedure: The EBP immunoaffinity (IA) LC-MS assay measures the potency of small molecule inhibitors of EBP by quantifying their concentration-dependent changes in the enzyme's substrate and product using liquid chromatography atmospheric pressure chemical ionization multiple reaction monitoring mass spectrometry (LC-APCI MRM MS). HEK293T cells were utilized as the source of EBP enzyme. The enzyme was incubated with the small molecule inhibitors at variable concentrations for 30 min. Deuterated form of EBP substrate, zymosterol-d5 (Avanti Polar Lipids, Cat #700068P-1 mg), was then added and the plate was incubated at 37° C. for 4 h. Finally, the sterol isomers were extracted and injected to LC-APCI MRM MS. MRM transition used for the quantification for both zymosterol and […] (substrate and product of EBP enzymatic reaction, respectively) is 372.3-203.2, CE 30 and DP 80 in positive ion mode. Percent conversion of the zymosterol-d5 to dehydrolathosterol-d5 was used to derive IC50 curves. Tasin-1 (1′-[(4-Methoxyphenyl)sulfonyl]-4-methyl-1,4′-bipiperidine, CAS 792927-06-1) was used as the reference small molecule inhibitor.
Percent conversion versus the compound concentration data were fit to the following 4-parameter logistic model to generate IC50 curves: […]

T1 sequence (Q15125 whole entry): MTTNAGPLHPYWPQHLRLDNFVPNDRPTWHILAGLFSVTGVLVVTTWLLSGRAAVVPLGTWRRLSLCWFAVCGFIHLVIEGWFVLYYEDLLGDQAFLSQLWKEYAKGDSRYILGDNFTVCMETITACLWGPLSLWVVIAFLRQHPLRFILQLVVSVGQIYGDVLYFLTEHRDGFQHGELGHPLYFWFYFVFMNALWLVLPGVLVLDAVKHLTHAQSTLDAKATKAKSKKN

IC50 [nM]	Compound
< 100	Cc1nc(C(F)(F)F)ccc1S(=O)(=O)N1CC2(CN(C3(C)CCOCC3)C2)C1 [Example 77, 2-((2-methyl-6-(trifluoromethyl)pyridin-3-yl)sulfonyl)-6-(4-methyltetrahydro-2H-pyran-4-yl)-2,6-diazaspiro[3.3]heptane]
250 to 4000	Cc1nc(C(F)(F)F)ccc1S(=O)(=O)N1CC2(CN(C3CCOC3)C2)C1 (centres unmarked) [Example 140]
100 to 250	Cc1nn(C)c(S(=O)(=O)N2CC3(CN(C4CCOCC4)C3)C2)c1C(F)F [Example 49]
< 100	Cc1nc(C(F)(F)F)ccc1S(=O)(=O)N1CCC2(CC1)CN(C1CCOCC1)C2 [Example 33, 7-((2-Methyl-6-(trifluoromethyl)pyridin-3-yl)sulfonyl)-2-(tetrahydro-2H-pyran-4-yl)-2,7-diazaspiro[3.5]nonane]
< 100	O=S(=O)(c1ccc(OC(F)F)cc1)N1CCC2(CCN(C3CCOCC3)C2)CC1 [Example 39]
100 to 250	O=S(=O)(c1cc(F)cc(F)c1)N1CCOC2(CCN(C3CC4(COC4)C3)C2)C1 (centres unmarked) [Example 28, 9-((3,5-Difluorophenyl)sulfonyl)-2-(2-oxaspiro[3.3]heptan-6-yl)-6-oxa-2,9-diazaspiro[4.5]decane]
250 to 4000	Cc1cc(C(F)(F)F)cnc1S(=O)(=O)N1CC2(CN(C3CCOCC3)C2)C1 [Example 221, 2-((3-methyl-5-(trifluoromethyl)pyridin-2-yl)sulfonyl)-6-(tetrahydro-2H-pyran-4-yl)-2,6-diazaspiro[3.3]heptane]
< 100	Cc1nc(C(F)(F)F)ccc1S(=O)(=O)N1CC2(CN(CC3CCOCC3)C2)C1 [Example 152]
< 100	Cc1nc(C(F)(F)F)ccc1S(=O)(=O)N1CC2(CN(C3CCOCC3)C2)C1 [Example 51, 2-((2-Methyl-6-(trifluoromethyl)pyridin-3-yl)sulfonyl)-6-(tetrahydro-2H-pyran-4-yl)-2,6-diazaspiro[3.3]heptane]
< 100	O=S(=O)(c1ccc(C2CC2)nc1C(F)(F)F)N1CC2(CN(CC3CCOCC3)C2)C1 [Example 108, 2-((6-cyclopropyl-2-(trifluoromethyl)pyridin-3-yl)sulfonyl)-6-((tetrahydro-2H-pyran-4-yl)methyl)-2,6-diazaspiro[3.3]heptane]
< 100	Cc1nc(C(F)(F)F)ccc1S(=O)(=O)N1CC2(CN(C(C)C3(C)CCCO3)C2)C1 (mixture of isomers) [Example 135]
< 100	Cc1nc(C(F)(F)F)ccc1S(=O)(=O)N1CC2(CN(C(C)C34COC(C)(C3)C4)C2)C1 (racemic) [Example 167, rac-2-(1-(1-methyl-2-oxabicyclo[2.1.1]hexan-4-yl)ethyl)-6-((2-methyl-6-(trifluoromethyl)pyridin-3-yl)sulfonyl)-2,6-diazaspiro[3.3]heptane]
< 100	Cc1cc(C(F)(F)F)nc(C)c1S(=O)(=O)N1CC2(CN(CC3CCOCC3)C2)C1 [Example 102]
100 to 250	Cc1cc(S(=O)(=O)N2CCC3(CCN(C4CCOCC4)C3)CC2)n(C)n1 [Example 37]
< 100	COc1ccc(S(=O)(=O)N2CC3(CN(C4CCOCC4)C3)C2)c(Cl)n1 [Example 98, 2-((2-chloro-6-methoxypyridin-3-yl)sulfonyl)-6-(tetrahydro-2H-pyran-4-yl)-2,6-diazaspiro[3.3]heptane]
250 to 4000	CC(C)(O)CN1CCC2(CC1)CN(S(=O)(=O)c1ccc(OC(F)F)cc1)CCO2 [Example 10, 1-(4-((4-(Difluoromethoxy)phenyl)sulfonyl)-1-oxa-4,9-diazaspiro[5.5]undecan-9-yl)-2-methylpropan-2-ol]

IC50 [nM]	Compound
250 to 4000	O=S(=O)(c1cnc(C2CC2)s1)N1CCOC2(CN(C3CCOCC3)C2)C1 [Example 22, 8-((2-Cyclopropylthiazol-5-yl)sulfonyl)-2-(tetrahydro-2H-pyran-4-yl)-5-oxa-2,8-diazaspiro[3.5]nonane]
100 to 250	Cc1nc(C(F)(F)F)ccc1S(=O)(=O)N1CC2(CN(C3CCC(C)(O)CC3)C2)C1 (centres unmarked) [Example 222, 1-methyl-4-(6-((2-methyl-6-(trifluoromethyl)pyridin-3-yl)sulfonyl)-2,6-diazaspiro[3.3]heptan-2-yl)cyclohexan-1-ol]
< 100	Cc1nc(C(C)(F)F)ccc1S(=O)(=O)N1CC2(CN(C3CCOCC3)C2)C1 [Example 79]
250 to 4000	Cc1nc(C(F)(F)F)ccc1S(=O)(=O)N1CC2(CN(CC3CCCO3)C2)C1 (centres unmarked) [Example 139]
< 100	CCc1cc(C(F)(F)F)ncc1S(=O)(=O)N1CC2(CN(C3CCC(C)(O)CC3)C2)C1 (single isomer, unassigned) [Example 127, 4-(6-((4-ethyl-6-(trifluoromethyl)pyridin-3-yl)sulfonyl)-2,6-diazaspiro[3.3]heptan-2-yl)-1-methylcyclohexan-1-ol]
< 100	Cc1nc(C(F)(F)F)ccc1S(=O)(=O)N1CC2(CN(CC3(F)CCOCC3)C2)C1 [Example 188, 2-((4-fluorotetrahydro-2H-pyran-4-yl)methyl)-6-((2-methyl-6-(trifluoromethyl)pyridin-3-yl)sulfonyl)-2,6-diazaspiro[3.3]heptane]
< 100	Cc1cc(C(F)(F)F)ccc1S(=O)(=O)N1CC2(CN(CC3CCOCC3)C2)C1 [Example 194, 2-((2-methyl-4-(trifluoromethyl)phenyl)sulfonyl)-6-((tetrahydro-2H-pyran-4-yl)methyl)-2,6-diazaspiro[3.3]heptane]
< 100	Cc1nc(C(F)(F)F)ccc1S(=O)(=O)N1CC2(CN(CCC3CC3)C2)C1 [Example 184]
250 to 4000	COCCOCCCN1CC2(C1)CN(S(=O)(=O)c1ccc(C(F)(F)F)nc1C)C2 [Example 172]
< 100	Cc1nc(C(C)(F)F)ccc1S(=O)(=O)N1CC2(CN(CC3COC3)C2)C1 [Example 87]
250 to 4000	Cc1nc(C(C)(F)F)ccc1S(=O)(=O)N1CC2(CN(C3CCCOC3)C2)C1 (centres unmarked) [Example 80]
< 100	Cc1nc(C(F)(F)F)ccc1S(=O)(=O)N1CC2(CN(C(C)C3CCOCC3)C2)C1 (racemic) [Example 153, rac-2-((2-methyl-6-(trifluoromethyl)pyridin-3-yl)sulfonyl)-6-(1-(tetrahydro-2H-pyran-4-yl)ethyl)-2,6-diazaspiro[3.3]heptane]
250 to 4000	O=S(=O)(c1ccc(C(F)(F)F)nc1C(F)(F)F)N1CC2(CN(C3CCOCC3)C2)C1 [Example 109, 2-((2,6-bis(trifluoromethyl)pyridin-3-yl)sulfonyl)-6-(tetrahydro-2H-pyran-4-yl)-2,6-diazaspiro[3.3]heptane]
< 100	Cc1nc(C(F)(F)F)ccc1S(=O)(=O)N1CC2(CN(C(C)C3CCCOC3)C2)C1 (centres unmarked) [Example 137]
250 to 4000	O=S(=O)(c1ccc(OC(F)F)cc1)N1CCOC2(CCN(CC3CCOCC3)CC2)C1 [Example 19, 4-((4-(Difluoromethoxy)phenyl)sulfonyl)-9-((tetrahydro-2H-pyran-4-yl)methyl)-1-oxa-4,9-diazaspiro[5.5]undecane]
250 to 4000	Cc1cc(C(F)(F)F)cnc1S(=O)(=O)N1CC2(CN(CC3CCOCC3)C2)C1 [Example 224, 2-((3-methyl-5-(trifluoromethyl)pyridin-2-yl)sulfonyl)-6-((tetrahydro-2H-pyran-4-yl)methyl)-2,6-diazaspiro[3.3]heptane]
